Measurements as given in PMC4718910 (SpringerPlus, 2016).
pIC50: −log10 of the molar value. Where two headings read alike, the source gives them in different places. One block for each compound: values may come before it.

Tests used:
[1] = Afatinib plasma pharmacokinetics (HPLC-MS/MS); type: in vivo, human; conditions: for AUC / Tmax: human, plasma, po; for AUC: read-out: AUCtau,ss, geometric mean; for Tmax: read-out: tmax,ss, median
[2] = Letrozole plasma pharmacokinetics (HPLC-MS/MS); type: in vivo, human
Protocol: For quantification of drug plasma concentrations, 5 mL of venous blood was collected. […] Letrozole plasma concentrations were determined by a validated HPLC–MS/MS assay at Nuvisan Pharma Services GmbH & Co. KG, Neu-Ulm, Germany.

ErbB3 = tested on: ErbB3; parameters: method as in Li et al. [2008]; conditions: ref Li et al. [2008]; cited from earlier work
[3] = tested on: HER2-positive metastatic breast cancer (MBC); parameters: method as in Lin et al. [2012]; conditions: afatinib monotherapy 50 mg/day, heavily pre-treated HER2-positive MBC after trastuzumab; ref Lin et al. [2012]; cited from earlier work
HER2 = conditions: read-out: half maximal inhibitory concentration, HER2; ref Li et al. [2008]; cited from earlier work
ErbB4 = conditions: read-out: half maximal inhibitory concentration, ErbB4; ref Li et al. [2008]; cited from earlier work
[4] = tested on: ER/PgR-positive HER2-negative MBC; parameters: method as in Bachelot et al. [2012]; conditions: aromatase inhibitor-resistant, N 111; ref Bachelot et al. [2012]; cited from earlier work
ER/PgR/HER2-positive MBC = tested on: ER/PgR/HER2-positive MBC; parameters: method as in Kaufman et al. [2009]; conditions: N 207, ref Kaufman et al. [2009]; cited from earlier work
ER/PgR-positive MBC = tested on: ER/PgR-positive MBC; parameters: method as in Huober et al. [2012]; conditions: ref Huober et al. [2012], cited from earlier work
[5] = Afatinib 30 mg multiple oral administrations with letrozole 2.5 mg, N 5
[6] = Afatinib 40 mg multiple oral administrations with letrozole 2.5 mg, N 4
[7] = ER/PgR-positive HER2-negative MBC, N 35

Cpre,ss, 57, geometric mean ([1]; Afatinib 30 mg with letrozole 2.5 mg, pre-dose day 1 of cycle 3, N 8): 15.8 ng/mL
Cpre,ss, 85, geometric mean ([1]; Afatinib 30 mg with letrozole 2.5 mg, pre-dose day 1 of cycle 4, N 5): 17.3 ng/mL
Cpre,ss, 57, geometric mean ([1]; Afatinib 40 mg with letrozole 2.5 mg, pre-dose day 1 of cycle 3, N 5): 21.4 ng/mL
AUC [1, 5]: 579 ng·h/mL
Tmax [1, 5]: 4 h
AUC [1, 6]: 660 ng·h/mL
Tmax [1, 6]: 2 h
effect of afatinib on letrozole exposure ([2]; letrozole trough and 2-h post-dose plasma concentrations, screening period vs afatinib treatment period): no effect
Compound: CN(C)C/C=C/C(=O)Nc1cc2c(Nc3ccc(F)c(Cl)c3)ncnc2cc1O[C@H]1CCOC1 [Afatinib]
ErbB3 transphosphorylation (ErbB3): inhibits ErbB3 transphosphorylation
pIC50 (HER2): 7.85

Compound: CC/C(=C(\c1ccccc1)c1ccc(OCCN(C)C)cc1)c1ccccc1 [Tamoxifen]
Clinical benefit rate [4]: Clinical benefit rate = 42%

Compound: CC(C)(C#N)c1cc(Cn2cncn2)cc(C(C)(C)C#N)c1 [Anastrozole]
Median PFS (independent assessment) (ER/PgR/HER2-positive MBC): 2.4 (independent assessment) months

Compound: N#Cc1ccc(C(c2ccc(C#N)cc2)n2cncn2)cc1 [Letrozole]
AUC ([2]; human, plasma, oral, 2.5 mg, read-out: geometric mean AUCtau,ss): 2420 ng·h/mL
Cmax ([2]; human, plasma, oral, 2.5 mg, read-out: geometric mean Cmax,ss): 135 ng/mL
Grade ≥3 bone pain (ER/PgR-positive MBC; [7]): Bone pain 6%
Median PFS (ER/PgR-positive MBC; [7]): 15.2 months
Median PFS (ER/PgR-positive MBC; ER/PgR/HER2-positive MBC, first-line): 3.3 months
Grade ≥3 bone pain (ER/PgR-positive MBC; ER/PgR/HER2-positive MBC): 7%
Grade ≥3 dyspnea (ER/PgR-positive MBC; ER/PgR/HER2-positive MBC): 7%
